Data on 2 compounds can be found in paper PMC8279484 (Journal of Medicinal Chemistry, 2021).

The subject of one data set is IL-1β. In words: LPS-induced IL-1β release from THP-1 Lucia monocytes (multiplex electrochemiluminescence). Type of data set: cell-based, human. Conditions: Dex 1 μM; 2 1 pM; LPS 50 ng/mL, 24 h. The procedure:
(§1) LXA41 and all of the tested sLXms were dissolved in ethanol and further diluted in a culture medium (final ethanol concentration 0.1%; equivalent concentrations were used as the vehicle control). Prior to in vitro experiments, THP-1-Lucia NF-κB cells were harvested and plated at 1 × 10^5 cells/well on 96-well plates and left to settle in the incubator at 37 °C, 95% humidity, and 5% CO2, in 0.1% FBS-containing media, pretreated for 30 min with increasing doses of LXA41, sLXms (from 10^–12 to 10^–6 M), or appropriate controls, followed by stimulation with 50 ng/mL LPS for 24 h. Untreated (Unt) or vehicle-treated (Veh) cells were used as negative controls; 1 pM (1R)-5, the (1R)-epimer of the benzo-mimetic, was used as a positive control for any aromatic mimetic; and, finally, we compared the observed effects to the conventional glucocorticoid dexamethasone (Dex) treatment, at 1 μM.
(§2) After 24 h of exposure to LXA41, sLXms, or vehicle, followed by LPS stimulation (50 ng/mL), as described above, THP-1-Lucia NF-κB-cell supernatants were collected and cleared by centrifugation. Concentrations of IFN-γ, IL-1β, IL-6, IL-8, IL-10, IL-12p70, and TNF-α in culture supernatants were assessed by electro-chemi-luminescent detection, using a commercially available human 96-well plate “multiplex” (several analytes in the same well) kit for tissue culture samples, according to the manufacturers’ guidelines.
(§3) The “coding” of the heat-map indicates the arbitrary criteria to assign points to each single PD component (efficacy = Imax or Emax; potency = IC50 or EC50; slope = HS) to generate a final (aggregate) relative PD score. If a single PD component was greater than the reference level (x > 1), then the single-component relative score was arbitrarily set to +1 (light green) or +2 (dark green). If a single PD component was equal to the reference level (x = 1), then the single-component relative score was arbitrarily set to 0 (gray). If a single PD component was smaller than the reference level (x < 1), then the single-component relative score was arbitrarily set to −1 (light red) or −2 (dark red). If the curve of a single PD component was best fitting to a flat line (x = 0), then the single-component relative score was arbitrarily set to −4 (purple) (Table S1).

Data set [1] concerns THP-1 LUCIA monocytes. In words: Extrinsic cytotoxicity: LDH release after LPS challenge. Type of data set: cell-based, human. The conditions noted are these: Dex 1 μM. The procedure:
(§4) We investigated the potential cytotoxicity of all candidate sLXms by assaying LDH release.[50] The response to LPS was arbitrarily set to 100%, and values were expressed relative to this. As previously reported by others, LPS provokes LDH release.[51] […] Ultimately, untreated cells defined the spontaneous cell release thresholds.
(§5) Lactate dehydrogenase (LDH) was assayed in cell supernatants to investigate possible cytotoxicity of the lead compound. LDH is rapidly released into the culture medium after disruption of the plasma membrane.[67],[69] After 24 h of exposure to sLXms, vehicle, or controls, followed by LPS stimulation, as described above, THP-1-Lucia NF-κB-cell supernatants were collected and LDH was assayed. Cytotoxicity was evaluated relative to vehicle controls. Maximum releasable LDH was determined in cells lysed with 2% Triton-X-100 (Sigma-Aldrich, Ireland). LDH levels were assessed by reading the absorbance at 490 nm (protein) and 690 nm (background noise), using a spectrophotometer (SPECTRAMAX M2, Molecular Devices (U.K.) Limited).
A general note: Release of lactate dehydrogenase indicates damage to the cell membrane.

The next data set has as its system IL-8. Nature of the data set: LPS-induced IL-8 release from THP-1 Lucia monocytes (multiplex electrochemiluminescence). Type of data set: cell-based, human. Conditions: Dex 1 μM; 1 1 nM; (R)-6 concentration not given. The procedure: as §1, §2
Data set [2] has as its system THP-1 LUCIA monocytes. In words: Intrinsic cytotoxicity: LDH release without LPS. Type of data set: cell-based, human. The conditions noted are these: absence of LPS, 24 h; controls Dex 1 μM, 2 1 pM, 5 1 pM. The procedure:
as §4, §5

Another data set relates to IL-6. In words: LPS-induced IL-6 release from THP-1 Lucia monocytes (multiplex electrochemiluminescence). Type of data set: cell-based, human. The conditions noted are these: Dex 1 μM; 2 1 pM; LPS 50 ng/mL, 24 h. The procedure: as §1, §2, §3
The test system of another data set is IFNγ. Nature of the data set: LPS-induced IFNγ release from THP-1 Lucia monocytes (multiplex electrochemiluminescence). It is filed as cell-based, human. The conditions noted are these: Dex 1 μM; 2 1 pM; LPS 50 ng/mL, 24 h. The procedure: as §1, §2, §3
The next data set deals with C57BL/6J mice. Nature of the data set: Murine zymosan-induced peritonitis. Type of data set: in vivo, mouse. How it is done: Male C57BL/6J mice of 9 weeks of age were purchased from Charles River (Kent, U.K.) and were housed in a specific pathogen-free facility in individually ventilated and filtered cages under positive pressure. Peritonitis was induced in mice by ip injection of zymosan (purchased from Sigma-Aldrich; 1 mg per mouse in 0.5 mL of phosphate-buffered saline (PBS)).[73] Mice were treated with dexamethasone (1 μg/g) purchased from Sigma-Aldrich 1 h prior to zymosan injection or (R)-6 (2 and 6 ng/g) (200 μL IP) 30 min prior to zymosan injection. Peritoneal cells were collected by lavage 4 h after injection of zymosan. The local Animal Use and Care Committee and The UK Home Office approved the animal experiments in accordance with the derivatives of both The Home Office Guidance on the Operation of Animals (Scientific Procedures) Act 1986 and The Guide for the Care and Use of Laboratory Animals of the National Research Council.
Surface marker expression on peritoneal cells was assessed by flow cytometry with data collection on a FACSCalibur (Becton Dickinson). Data were analyzed with FlowJo analysis software (Treestar Inc.). Cells were stained with AlexaFluor488 conjugated anti-F4/80 (clone BM8; eBioscience); APC conjugated anti-CD11b (clone M1/70; eBioscience) and Pacific blue conjugated anti-Ly6G (clone 1A8; BioLegend) antibodies. Prior to surface staining, peritoneal cells were counted manually (Neubauer chamber) with Turks solution. Using appropriate fluorescence minus one (FMO) controls, quadrants were drawn, and data were plotted on logarithmic-scale density- or dot-plots.

For another data set, the system named is NF-κB. The arrangement: method as in PMID 30213823. The conditions noted are these: LXA4 1 0.1 nM; 2 1 nM; cited from earlier work.

Molecules are shown by their SMILES.

Turning to `C[C@@H]1C[C@H]2[C@@H]3CCC4=CC(=O)C=C[C@]4(C)[C@@]3(F)[C@@H](O)C[C@]2(C)[C@@]1(O)C(=O)CO` [Dex, dexamethasone, reference compound], in the data set with IL-1β, the “Imax, IL-1β release, single-point controls” value stood at 86 ± 6%. In addition, the “effect on LPS-induced LDH” value in the data set with THP-1 LUCIA monocytes [1] is reported as “did not reduce LPS-induced LDH”. For the same compound, the “enhancement of LPS-induced secretion of IL-8” value in the data set with IL-8 is given as 2.5 fold. Besides, the “intrinsic LDH release versus vehicle / spontaneous cell release” value with THP-1 LUCIA monocytes [2] is listed as “did not display any significant cytotoxic effect”. For the same compound, the “Imax, IL-6 release, single-point controls” value in the data set on IL-6 worked out at 98 ± 1%. Besides, in the data set with IFNγ, the “attenuation of IFNγ release, single-point controls” value was determined as 56 ± 2%. Moreover, in the data set on C57BL/6J mice (Dex ip (1 mg/kg in Figure 9) + zymosan 40 mg/kg, n = 5 mice), the “Total no of PMNs” value is 2.4 ± 0.7 × 10^6/mL. Also, the “relative proportion of PMNs and monocytes/macrophages (flow cytometry)” value with C57BL/6J mice (peritoneal cells, data not shown) is given as “not to be altered”.

As to `CCCCC[C@@H](O)c1ccccc1/C=C/[C@@H](O)[C@@H](O)CCCC(=O)OC` [Compound 2, benzo-LXA4, reference compound], in the data set with IL-1β, the “Imax, IL-1β release, single-point controls” value was 59 ± 4%. For the same compound, the “effect on TNF-α-stimulated NF-κB activity” value with NF-κB is “reduced TNF-α-stimulated NF-κB activity”. Besides, the “intrinsic LDH release versus vehicle / spontaneous cell release” value in the data set with THP-1 LUCIA monocytes [2] was “did not display any significant cytotoxic effect”. The “Imax, IL-6 release, single-point controls” value in the data set on IL-6 came out at 42 ± 3%. Also, the “attenuation of IFNγ release, single-point controls” value in the data set with IFNγ is listed as “did not significantly alter”.
